# Test results: patent US20100144853A1, “NOVEL COMBINED ADMINISTRATION” (priority 2008, published 2010)
# Experiments:
# Format in all cases: in vitro ADME
# [1] = Stability of COMPOUND A in human intestinal fluids, Procedure E (suspension, excess separated by centrifugation), fasted; details: HIF-fasted
# Experimental: (§1) Fasted Intestinal Fluids: the fluids from 4 different subjects were collected with a naso-jejunal tube after fasting overnight and pooled.
# Procedure E (COMPOUND A and COMPOUND B in Suspension, Excess Compound Separated by Centrifugation):
# Stock J=COMPOUND B suspension (2 mg/mL)
# 100 μL of FeSSIF concentrate and 900 μL of pro-FeSSIF pH6.5 were added to 4 mg commercially available Orlistat formulation (Xenical®) containing 2 mg of lipase inhibitor 1-(3-hexyl-4-oxo-oxetan-2-yl)tridecan-2-yl 2-formyl-amino-4-methyl-pentanoate (COMPOUND B) in a vial and the formulation was dispersed by gently stirring during 15 min to obtain a fine homogenous suspension.
# 500 μL of freshly thawed intestinal fluids (fasted and stimulated state) were added to 1 mg of COMPOUND A in a 1 mL glass vial immediately followed by the addition of either 0, 10 or 20 μL of COMPOUND B suspension (stock J) corresponding to 0, 40 or 80 μg/mL of COMPOUND B. The amount of COMPOUND B was 0, 2% or 4% COMPOUND B relative to COMPOUND A. The mixture was incubated at 37° C. with gentle stirring. Samples of 90 μL were removed as function of time and centrifuged at 13′000 rpm (about 12′000×g) for 5 min. 50 μL of the supernatant was diluted with 150 μL isopropanol, centrifuged at 5′000 rpm for 5 min and the clear supernatant was analyzed by HPLC.
# [2] = Stability of COMPOUND A in human intestinal fluids, Procedure D (in solution), fasted; details: fasted intestinal fluid
# Experimental: (§2) Procedure D (COMPOUND A and COMPOUND B in Solution):
# as §1
# (§3) 5 mg of thioisobutyric acid S-(2-{[1-(2-ethyl-butyl)-cyclohexanecarbonyl]-amino}-phenyl)ester (COMPOUND A) were dissolved in 50 μL ethanol and 950 μL mixed micelles solution containing Soybean lecithin/Sodium glycocholate (158/97 mg/mL) in water were added.
# (§4) 3 mg of 1-(3-hexyl-4-oxo-oxetan-2-yl)tridecan-2-yl 2-formyl-amino-4-methyl-pentanoate (COMPOUND B) were dissolved in 1 mL of ethanol. 100 μL of this solution was diluted with 900 μL of FeSSIF concentrate (10×).
# (§5) 100 μL of drug solution (stock D) were mixed with 100 μL of esterase inhibitor solution (stock E) and 800 μL of pro-FaSSIF were added.
# (§6) 100 μL of premix (stock F) were mixed with 200 μL of drug solution (stock A).
# (§7) 200 μL of premix (stock F) were mixed with 100 μL of drug solution (stock A). 315 μL of intestinal fluids (fasted and stimulated) were pre-heated at 37° C. for about 5 min. At time zero, 35 μL of premix solutions were added, i.e. either stock A, stock G, stock H or stock F, to obtain 50 μg/mL of COMPOUND A and final concentrations of COMPOUND B of 0, 1, 2 or 3 μg/mL. The samples were incubated at 37° C. while gently stirring. The reaction was stopped after 2 min or after 10 min by dilution of 1 part of the reaction mixture with 3 parts of isopropanol and the resulting mixture was centrifuged for 5 min at 5′000 rpm. The supernatant was analyzed by HPLC.
# [3] = Stability of COMPOUND A in human intestinal fluids, Procedure F (suspension, no separation of excess), second table; details: fasted HIF
# Experimental: (§8) Stimulated Intestinal Fluids: the fluids from 3 different subjects were collected after fasting overnight with a nasojejunal tube and pooled. For the stimulation, twenty minutes before the beginning of the collection, volunteers were provided with chewing-gums and were asked to chew over a 15 minutes period, maintaining the taste by replacing the sticks of gum approximately every 2 minutes.
# Procedure F (COMPOUND A and COMPOUND B in suspension, the degradation immediately stopped without separation of excess compound): Stock K=COMPOUND B suspension (0.5 mg/mL)
# Dilute 1 part of COMPOUND B suspension (stock J) with 3 parts of FeSSIF pH6.5 solution.
# 500 μL of freshly thawed intestinal fluids (fasted and stimulated state) were added to 1.2 mg of COMPOUND A in a 1 mL glass vial. The suspended compound was stirred for 15 min at 37° C. to obtain wetting and a homogenous suspension. In parallel, 4 glass vials were prepared with 20 μL of a COMPOUND B suspension at different concentrations. These concentrations were obtained by mixing FeSSIF pH6.5 and COMPOUND B suspension (stock K) in different ratios, respectively 1:[…], 1:1, 0:1 to obtain 0, 1, 2 and 4% related to COMPOUND A. At time zero, 100 μL of COMPOUND A suspension preincubated at 37° C. were added to the 20 μL COMPOUND B suspension. The mixture was incubated at 37° C. with gentle stirring. After 15 min and 60 min, the reaction was stopped by mixing a 50 μL sample with 150 μL isopropanol and centrifuged at 5′000 rpm during 5 min. The clear supernatant was analyzed for the hydrolysis product and its oxidized form by HPLC.
# [4] = Stability of COMPOUND A in human intestinal fluids, Procedure D (in solution), stimulated; details: stimulated intestinal fluid
# Experimental: as §2, §8, §3, §4, §5, §6, §7
# [5] = COMPOUND B 0 μg/mL, 2 min, theoretical 50 μg/mL
compound,measurement,setting,value
"CCC(CC)CC1(C(=O)Nc2ccccc2SC(=O)C(C)C)CCCCC1 [COMPOUND A, thioisobutyric acid S-(2-{[1-(2-ethyl-butyl)-cyclohexanecarbonyl]-amino}-phenyl)ester]",Concentration of COMPOUND A,"[1]; with 40 μg/mL of COMPOUND B, 15 min",1.12 µg/mL
same,Concentration of COMPOUND A,"[1]; with 40 μg/mL of COMPOUND B, 30 min",11.75 µg/mL
same,Concentration of COMPOUND A,"[1]; with 40 μg/mL of COMPOUND B, 1 h",111.05 µg/mL
same,Concentration of COMPOUND A,"[1]; with 40 μg/mL of COMPOUND B, 2 h",217.35 µg/mL
same,Concentration of COMPOUND A,"[1]; with 40 μg/mL of COMPOUND B, 4 h",281.66 µg/mL
same,Concentration of COMPOUND A,"[1]; with 80 μg/mL of COMPOUND B, 15 min",5.62 µg/mL
same,Concentration of COMPOUND A,"[1]; with 80 μg/mL of COMPOUND B, 30 min",16.36 µg/mL
same,Concentration of COMPOUND A,"[1]; with 80 μg/mL of COMPOUND B, 1 h",89.60 µg/mL
same,Concentration of COMPOUND A,"[1]; with 80 μg/mL of COMPOUND B, 2 h",230.34 µg/mL
same,Concentration of COMPOUND A,"[1]; with 80 μg/mL of COMPOUND B, 4 h",336.00 µg/mL
same,Concentration of COMPOUND A,"[1]; without COMPOUND B, 15 min",1.62 µg/mL
same,Concentration of COMPOUND A,"[1]; without COMPOUND B, 30 min",1.86 µg/mL
same,Concentration of COMPOUND A,"[1]; without COMPOUND B, 1 h",0.49 µg/mL
same,Concentration of COMPOUND A,"[1]; without COMPOUND B, 2 h",0.49 µg/mL
same,Concentration of COMPOUND A,"[1]; without COMPOUND B, 4 h",0.49 µg/mL
same,Concentration of COMPOUND A,[2]; [5],0.48 µg/mL
same,Concentration of COMPOUND A,"[2]; COMPOUND B 0 μg/mL, 10 min",0.48 µg/mL
same,Concentration of COMPOUND A,"[2]; COMPOUND B 1 μg/mL, 2 min",18.00 µg/mL
same,Concentration of COMPOUND A,"[2]; COMPOUND B 1 μg/mL, 10 min",1.58 µg/mL
same,Concentration of COMPOUND A,"[2]; COMPOUND B 2 μg/mL, 2 min",36.91 µg/mL
same,Concentration of COMPOUND A,"[2]; COMPOUND B 2 μg/mL, 10 min",28.59 µg/mL
same,Concentration of COMPOUND A,"[2]; COMPOUND B 3 μg/mL, 2 min",43.72 µg/mL
same,Concentration of COMPOUND A,"[2]; COMPOUND B 3 μg/mL, 10 min",37.24 µg/mL
same,Concentration of COMPOUND A,"[3]; COMPOUND B 0 μg/mL (0%), T = 15 min",1569.58 µg/mL
same,Concentration of COMPOUND A,"[3]; COMPOUND B 0 μg/mL (0%), T = 60 min",400.63 µg/mL
same,Concentration of COMPOUND A,"[3]; COMPOUND B 20 μg/mL (1%), T = 15 min",2034.38 µg/mL
same,Concentration of COMPOUND A,"[3]; COMPOUND B 20 μg/mL (1%), T = 60 min",1503.21 µg/mL
same,Concentration of COMPOUND A,"[3]; COMPOUND B 40 μg/mL (2%), T = 15 min",2163.01 µg/mL
same,Concentration of COMPOUND A,"[3]; COMPOUND B 40 μg/mL (2%), T = 60 min",1515.41 µg/mL
same,Concentration of COMPOUND A,"[3]; COMPOUND B 80 μg/mL (4%), T = 15 min",1945.50 µg/mL
same,Concentration of COMPOUND A,"[3]; COMPOUND B 80 μg/mL (4%), T = 60 min",1449.03 µg/mL
same,Concentration of COMPOUND A,[4]; [5],0.48 µg/mL
same,Concentration of COMPOUND A,"[4]; COMPOUND B 0 μg/mL, 10 min",0.48 µg/mL
same,Concentration of COMPOUND A,"[4]; COMPOUND B 1 μg/mL, 2 min",26.06 µg/mL
same,Concentration of COMPOUND A,"[4]; COMPOUND B 1 μg/mL, 10 min",2.76 µg/mL
same,Concentration of COMPOUND A,"[4]; COMPOUND B 2 μg/mL, 2 min",38.92 µg/mL
same,Concentration of COMPOUND A,"[4]; COMPOUND B 2 μg/mL, 10 min",24.93 µg/mL
same,Concentration of COMPOUND A,"[4]; COMPOUND B 3 μg/mL, 2 min",46.91 µg/mL
same,Concentration of COMPOUND A,"[4]; COMPOUND B 3 μg/mL, 10 min",40.48 µg/mL
